The target in this assay is T1, human P2Y12 receptor (Homo sapiens, UniProt Q9H244).
T1 construct: expressed in transfected cells; host or cells: CHO (Chinese Hamster Ovary) cells
T1 sequence (Q9H244 whole entry): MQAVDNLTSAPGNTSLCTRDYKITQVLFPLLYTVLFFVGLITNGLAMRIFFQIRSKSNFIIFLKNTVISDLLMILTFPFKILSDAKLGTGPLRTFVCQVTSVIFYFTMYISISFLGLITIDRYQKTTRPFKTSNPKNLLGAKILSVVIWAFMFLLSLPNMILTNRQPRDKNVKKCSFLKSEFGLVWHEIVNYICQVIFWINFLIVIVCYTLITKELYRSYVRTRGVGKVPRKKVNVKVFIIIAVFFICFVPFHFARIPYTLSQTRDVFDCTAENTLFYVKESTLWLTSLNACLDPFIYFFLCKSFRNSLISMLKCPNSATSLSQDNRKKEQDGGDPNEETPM
Description: P2Y12 receptor binding assay (displacement of tritium-labeled 2-methyl-S-ADP on CHO cells). Particulars: CHO cells with recombinant human P2Y12 receptor, 2 hours at room temperature. As for the experimental part:
The ability of the compounds of formulae (I) and (III) to bind to the P2Y12 receptor may be measured by methods similar to those described in Gachet C. et al., Br. J. Hematol. 1995, 91, 434-444 and by the method described below in Example 16.
Chinese Hamster Ovary (CHO) cells with recombinant expression of the human P2Y12 receptor were cultured in 24 well cell-culture plates. Cells were washed three times with binding buffer (50 mM Tris pH 7.4, 100 mM NaCl, 1 mM EDTA, 0.5% BSA). The cells were then incubated with 0.5 ml per well binding buffer containing tritium-labeled 2-methyl-thio-adenosine 5′-diphosphate (2-methyl-S-ADP) (between 100'000 and 300'000 dpm per well) and various concentrations of test compounds. After incubation at room temperature for 2 hours, cells were washed three times with binding buffer. Then, cells were solubilized by addition of 0.5 ml solubilization buffer (SDS, NaOH, EDTA). The content of each well was then transferred into beta-counter vials and 2.0 ml of Ultima Gold Scintillation liquid was added.
The test is conducted as described hereinabove. […] Exemplary IC50 values are given below.
Regarding `CCCOc1ccc(C=C2C(=O)NN(c3ccccc3)C2=O)c(C)c1C` [Example 1, 4-(2,3-Dimethyl-4-propoxy-benzylidene)-1-phenyl-pyrazolidine-3,5-dione], the 50% inhibitory concentration (IC50) amounted to 24 nM.

For the compound `COc1ccc(C=C2C(=O)NN(c3ccccc3)C2=O)c(C)c1C` [Example 2a7, 4-(2,3-Dimethyl-4-methoxy-benzylidene)-1-phenyl-pyrazolidine-3,5-dione], the concentration for half-maximal inhibition (IC50) worked out at 190 nM.

`CCOc1ccc(C=C2C(=O)NN(c3ccccc3)C2=O)cc1C` [Example 2a12, 4-(4-Ethoxy-3-methyl-benzylidene)-1-phenyl-pyrazolidine-3,5-dione]: the half-maximal inhibitory concentration (IC50) was 470 nM.

For the compound `CCCOc1ccc(C=C2C(=O)NN(c3ccccc3)C2=O)c2c1CCCC2` [Example 2a25, 1-Phenyl-4-(4-propoxy-5,6,7,8-tetrahydro-naphthalen-1-ylmethylene)-pyrazolidine-3,5-dione], the IC50 worked out at 30 nM.

Turning to `CCCOc1ccc(C=C2C(=O)NN(c3ccccc3)C2=O)c2cnccc12` [Example 2a30, 1-Phenyl-4-[1-(5-propoxy-isoquinolin-8-yl)-methylidene]-pyrazolidine-3,5-dione], the IC50 worked out at 10 nM.

Turning to `CCCOc1ccc(C=C2C(=O)NN(c3ccccc3)C2=O)c(OCCC)n1` [Example 2a35, 4-[1-(2,6-Dipropoxy-pyridin-3-yl)-methylidene]-1-phenyl-pyrazolidine-3,5-dione], the concentration for half-maximal inhibition (IC50) amounted to 370 nM.

With `CCCOc1ccc(C=C2C(=O)NN(c3ccccc3)C2=O)c(OCCOC)c1C` [Example 2a39, 4-[1-[2-(2-Methoxy-ethoxy)-3-methyl-4-propoxy-phenyl]-methylidene]-1-phenyl-pyrazolidine-3,5-dione], the half-maximal inhibitory concentration (IC50) was 15 nM.

Regarding `CCCOc1ccc(C=C2C(=O)NN(c3ccccc3)C2=O)c(OCCCCO)c1C` [Example 2a43, 4-[1-[2-(4-Hydroxy-butoxy)-3-methyl-4-propoxy-phenyl]-methylidene]-1-phenyl-pyrazolidine-3,5-dione], the half-maximal inhibitory concentration (IC50) stood at 5 nM.

Take `CCCOc1ccc(C=C2C(=O)NN(c3ccccc3)C2=O)c(OCCCCC(=O)O)c1C` [Example 2a52, 4-[1-[2-(4-Carboxy-butyloxy)-3-methyl-4-propoxy-phenyl]-methylidene]-1-phenyl-pyrazolidine-3,5-dione]: the half-inhibitory concentration (IC50) was 1.6 nM.

Regarding `CCCOc1ccc(C=C2C(=O)NN(c3ccccc3)C2=O)c(OC[C@H](O)CC(=O)O)c1C` [Example 2a63, 4-[1-[2-((2R)-3-Carboxy-2-hydroxy-propoxy)-3-methyl-4-propoxy-phenyl]-methylidene]-1-phenyl-pyrazolidine-3,5-dione], the IC50 was determined as 1 nM.

In the case of `CCCOc1ccc(C=C2C(=O)NN(c3ccccc3)C2=O)c(OC[C@@H](O)CC(=O)O)c1C` [Example 2a64, 4-[1-[2-((2S)-3-Carboxy-2-hydroxy-propoxy)-3-methyl-4-propoxy-phenyl]-methylidene]-1-phenyl-pyrazolidine-3,5-dione], the IC50 was determined as 0.8 nM.

Turning to `CCCOc1ccc(C=C2C(=O)NN(c3ccccc3)C2=O)c(OC[C@H](O)[C@@H](O)C(=O)O)c1C` [Example 2a71, 4-[1-[2-((2S,3R)-3-carboxy-2,3-dihydroxy-propoxy)-3-methyl-4-propoxy-phenyl]-methylidene]-1-phenyl-pyrazolidine-3,5-dione], the IC50 turned out to be 3 nM.

`CCCOc1ccc(C=C2C(=O)NN(c3ccccn3)C2=O)c(C)c1C` [Example 4a2, 4-(2,3-Dimethyl-4-propoxy-benzylidene)-1-pyridin-2-yl-pyrazolidine-3,5-dione]: the IC50 is 140 nM.

On to `CCCOc1ccc(C=C2C(=O)NN(c3ccc(F)cc3)C2=O)c(C)c1C` [Example 8a, 4-(2,3-Dimethyl-4-propoxy-benzylidene)-1-(4-fluoro-phenyl)-pyrazolidine-3,5-dione], for which the IC50 turned out to be 83 nM.

For the compound `CCCOc1ccc(C=C2C(=O)NNC2=O)c2c1CCCC2` [Example 12a3, 4-(4-Propoxy-5,6,7,8-tetrahydro-naphthalen-1-ylmethylene)-pyrazolidine-3,5-dione], the IC50 was 55 nM.

`CCCOc1ccc(C=C2C(=O)NNC2=O)c(OCCC)c1C` [Example 12a9, 4-(3-Methyl-2,4-dipropoxy-benzylidene)-pyrazolidine-3,5-dione]: the IC50 amounted to 40 nM.

As to `CCCOc1ccc(C=C2C(=O)NN(C(C)=O)C2=O)c(C)c1C` [Example 15, 1-Acetyl-4-[1-(2,3-dimethyl-4-propoxy-phenyl)-methylidene]-pyrazolidine-3,5-dione], the IC50 is 9600 nM.

In general, IC50 refers to the concentration that gives 50% inhibition.

For the origin of these results see US20070037846A1, “Pyrazolidinedione derivatives” (ACTELION PHARMACEUTICALS, LTD., priority 2003, published 2007).
